Experimental data as given in patent US20250302862A1, “SMALL RNA DRUG FOR INHIBITING ACTIVITY OF CANCER CELLS” (Institute of Basic Medical Sciences Chinese Academy of …, priority 2022, published 2025).

What was measured:
Assay type in all cases: cell-based, human
Settings in all cases: 100 nmol/L, jetPRIME, 72 h
[1] = system: pancreatic cancer BXPC-3 cells; experiment: Cell invasion (Matrigel Transwell)
Description: 1) Matrigel basement membrane matrix was thawed on crushed ice one night before and diluted with serum-free medium to a final concentration of 200-300 ug/mL. 100 uL of the diluted Matrigel was added to each upper chamber, let stand at 37° C. for 30 min, and the supernatant was aspirated. ASPC-1 cells and BXPC-3 cells with a cell density of more than 90% in 10 cm^2 dishes were digested and resuspended with 1 mL of serum-free medium and counted. 100,000 cells (100 uL) were plated in the upper chamber, and complete medium with 10% FBS was added to the lower chamber of each chamber. […]
1) Matrigel basement membrane matrix was thawed on crushed ice one night before and diluted with serum-free medium to a final concentration of 200-300 ug/mL. […] BXPC-3 cells with a cell density of more than 90% in 10 cm^2 dishes were digested and resuspended with 1 mL of serum-free medium and counted. […]

[2] = system: pancreatic cancer ASPC-1 cells; experiment: Cell migration (Transwell)
Description: (§1) 1) ASPC-1 cells and BXPC-3 cells with a cell density of more than 90% in 10 cm^2 dishes were digested and then resuspended with 1 mL of serum-free medium and counted. 100,000 cells (100 uL) were plated in the upper chamber, and complete medium with 10% FBS was added to the lower chamber of each Transwell chamber. Transfection was performed after 12 h, and the groups (3 wells per group) were divided: • blank control group: 10 uL of jetPRIME Buffer • negative control group (NC group) and experimental group: 10 uL of jetPRIME Buffer was mixed well with 0.5 uL of jetPRIME reagent and 0.5 uL of small RNA and let stand for 15 min, and then was added to each well at a 10 uL system (final concentration 100 nmol/L) • Note: 100 uL of nuclease-free water was added to 2 nmol of small RNA dry powder for dissolution at a storage concentration of 20 umol/L
(§2) After 72 h, the medium in upper and lower chambers was discarded. The cells were fixed with paraformaldehyde at room temperature for 15 min, stained with 0.1% crystal violet at room temperature for 15 min, and rinsed with PBS. The cells in the upper chamber were gently wiped off with cotton swabs, and the chamber was dried. A Leica inverted microscope DMi8 was turned on, the 5× objective lens was selected, the parameters were adjusted and the white balance was performed following the manual. Each chamber was photographed, followed by counting and statistic processing.
as §1, with “divided as follows:” for “divided:”

[3] = system: pancreatic cancer BXPC-3 cells; experiment: Cell migration (Transwell)
Description: as §1, §2
as §1, with “divided as follows:” for “divided:”

MDM-sRNA-39: small RNA derived from Maytenus hookeri, sequence GGGAUUGUAGUUCAAUUGGUCAGAGCACC (listed as RNA, chemistry not given here)
inhibits: cell invasion [1] | cell migration [2] | cell migration [3]

MDM-sRNA-163: small RNA derived from Maytenus hookeri, sequence UGACUCUAGUCCGACUUUGUGAAAUGACU (listed as RNA, chemistry not given here)
inhibits: cell invasion [1] | cell migration [2] | cell migration [3]
